Results reported in the supplement of paper PMC10307832.

Key:
Assay in all cases: relative viability (nuclei count vs DMSO), 5 days (fraction); higher = more cells survive
PC-14 = system: PC-14
Summary of the method: (§1)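 One day after seeding in 1536-well plates, lung cancer cell lines were dosed by pin tool. Dosing was either single-drug or a fixed anchor-drug dose plus five library-drug doses (not always all listed) in √10 steps. After 5 days, nuclei were stained in one fix-and-stain step and counted on 4× images, and relative viability is the nuclei count of treated wells over that of vehicle wells, given as the median of duplicate plates.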

EMC-BAC-2 = system: EMC-BAC-2
Summary of the method: as §1

201T = system: 201T
Summary of the method: as §1

NCI-H596 = system: NCI-H596
Summary of the method: as §1

NCI-H322M = system: NCI-H322M
Summary of the method: as §1

NCI-H2087 = system: NCI-H2087
Summary of the method: as §1

H3255 = system: H3255
Summary of the method: as §1

NCI-H2170 = system: NCI-H2170
Summary of the method: as §1

NCI-H2126 = system: NCI-H2126
Summary of the method: as §1

SK-MES-1 = system: SK-MES-1
Summary of the method: as §1

NCI-H441 = system: NCI-H441
Summary of the method: as §1

LXF-289 = system: LXF-289
Summary of the method: as §1

NCI-H1651 = system: NCI-H1651
Summary of the method: as §1

NCI-H2009 = system: NCI-H2009
Summary of the method: as §1

NCI-H647 = system: NCI-H647
Summary of the method: as §1

CAL-12T = system: CAL-12T
Summary of the method: as §1

ChaGo-K-1 = system: ChaGo-K-1
Summary of the method: as §1

NCI-H3122 = system: NCI-H3122
Summary of the method: as §1

NCI-H1755 = system: NCI-H1755
Summary of the method: as §1

HOP-62 = system: HOP-62
Summary of the method: as §1

LK-2 = system: LK-2
Summary of the method: as §1

NCI-H1734 = system: NCI-H1734
Summary of the method: as §1

Cc1cnc(-c2cnc(NCCNc3ccc(C#N)cn3)nc2-c2ccc(Cl)cc2Cl)[nH]1 + CC(=O)Nc1cccc(-n2c(=O)n(C3CC3)c(=O)c3c(Nc4ccc(I)cc4F)n(C)c(=O)c(C)c32)c1 [Trametinib] (partner 0.02 µM)
relative viability (PC-14; first compound 0.08 µM): 0.961
relative viability (PC-14; first compound 0.253 µM): 0.713
relative viability (PC-14; first compound 0.8 µM): 0.904
relative viability (PC-14; first compound 2.53 µM): 0.825
relative viability (EMC-BAC-2; first compound 0.08 µM): 1.06
relative viability (EMC-BAC-2; first compound 0.253 µM): 0.976
relative viability (EMC-BAC-2; first compound 0.8 µM): 0.853
relative viability (EMC-BAC-2; first compound 2.53 µM): 0.887
relative viability (201T; first compound 0.08 µM): 0.746
relative viability (201T; first compound 0.8 µM): 0.707
relative viability (201T; first compound 2.53 µM): 0.753
relative viability (NCI-H596; first compound 0.08 µM): 0.877
relative viability (NCI-H596; first compound 0.253 µM): 0.704
relative viability (NCI-H596; first compound 0.8 µM): 0.782
relative viability (NCI-H596; first compound 2.53 µM): 0.91
relative viability (NCI-H322M; first compound 0.08 µM): 0.563
relative viability (NCI-H322M; first compound 0.253 µM): 0.558
relative viability (NCI-H322M; first compound 0.8 µM): 0.468
relative viability (NCI-H322M; first compound 2.53 µM): 0.516
relative viability (NCI-H2087; first compound 0.08 µM): 0.203
relative viability (NCI-H2087; first compound 0.8 µM): 0.214
relative viability (NCI-H2087; first compound 2.53 µM): 0.177
relative viability (H3255; first compound 0.08 µM): 0.794
relative viability (H3255; first compound 0.253 µM): 0.583
relative viability (H3255; first compound 0.8 µM): 0.663
relative viability (H3255; first compound 2.53 µM): 0.668
relative viability (NCI-H2170; first compound 0.08 µM): 1.02
relative viability (NCI-H2170; first compound 0.8 µM): 0.929
relative viability (NCI-H2170; first compound 2.53 µM): 0.788
relative viability (NCI-H2126; first compound 0.08 µM): 0.58
relative viability (NCI-H2126; first compound 0.253 µM): 0.546
relative viability (NCI-H2126; first compound 0.8 µM): 0.564
relative viability (NCI-H2126; first compound 2.53 µM): 0.546
relative viability (SK-MES-1; first compound 0.08 µM): 0.548
relative viability (SK-MES-1; first compound 0.253 µM): 0.54
relative viability (SK-MES-1; first compound 0.8 µM): 0.676
relative viability (SK-MES-1; first compound 2.53 µM): 0.619
relative viability (NCI-H441; first compound 0.08 µM): 0.561
relative viability (NCI-H441; first compound 0.8 µM): 0.443
relative viability (NCI-H441; first compound 2.53 µM): 0.372
relative viability (LXF-289; first compound 0.08 µM): 0.704
relative viability (LXF-289; first compound 0.253 µM): 0.6
relative viability (LXF-289; first compound 0.8 µM): 0.674
relative viability (LXF-289; first compound 2.53 µM): 0.69
relative viability (NCI-H1651; first compound 0.08 µM): 0.855
relative viability (NCI-H1651; first compound 0.253 µM): 0.706
relative viability (NCI-H1651; first compound 0.8 µM): 0.74
relative viability (NCI-H1651; first compound 2.53 µM): 0.864
relative viability (NCI-H2009; first compound 0.08 µM): 0.372
relative viability (NCI-H2009; first compound 0.253 µM): 0.273
relative viability (NCI-H2009; first compound 0.8 µM): 0.293
relative viability (NCI-H2009; first compound 2.53 µM): 0.384
relative viability (NCI-H647; first compound 0.08 µM): 0.606
relative viability (NCI-H647; first compound 0.253 µM): 0.401
relative viability (NCI-H647; first compound 0.8 µM): 0.498
relative viability (NCI-H647; first compound 2.53 µM): 0.601
relative viability (CAL-12T; first compound 0.08 µM): 0.357
relative viability (CAL-12T; first compound 0.253 µM): 0.306
relative viability (CAL-12T; first compound 0.8 µM): 0.333
relative viability (CAL-12T; first compound 2.53 µM): 0.348
relative viability (ChaGo-K-1; first compound 0.08 µM): 0.891
relative viability (ChaGo-K-1; first compound 0.253 µM): 0.761
relative viability (ChaGo-K-1; first compound 0.8 µM): 0.844
relative viability (ChaGo-K-1; first compound 2.53 µM): 0.824
relative viability (NCI-H3122; first compound 0.08 µM): 0.262
relative viability (NCI-H3122; first compound 0.8 µM): 0.246
relative viability (NCI-H3122; first compound 2.53 µM): 0.233
relative viability (NCI-H1755; first compound 0.08 µM): 0.865
relative viability (NCI-H1755; first compound 0.253 µM): 0.755
relative viability (NCI-H1755; first compound 0.8 µM): 0.771
relative viability (NCI-H1755; first compound 2.53 µM): 0.771
relative viability (HOP-62; first compound 0.08 µM): 0.401
relative viability (HOP-62; first compound 0.253 µM): 0.375
relative viability (HOP-62; first compound 0.8 µM): 0.426
relative viability (HOP-62; first compound 2.53 µM): 0.426
relative viability (LK-2; first compound 0.08 µM): 0.834
relative viability (LK-2; first compound 0.253 µM): 0.833
relative viability (LK-2; first compound 0.8 µM): 0.841
relative viability (LK-2; first compound 2.53 µM): 0.955
relative viability (NCI-H1734; first compound 0.08 µM): 0.801
relative viability (NCI-H1734; first compound 0.253 µM): 0.641
relative viability (NCI-H1734; first compound 0.8 µM): 0.775
relative viability (NCI-H1734; first compound 2.53 µM): 0.72
